In general, GI50 refers to the concentration at which growth is held to half of that of the control. What is called TGI is the concentration giving total growth inhibition.

These results are taken from PubChem BioAssay (NCI).

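Tested at 5 concentrations; 48 h exposure; 96-well plates; endpoints linearly interpolated, else capped at highest concentration. Abbreviation: GI50, concentration required for 50% inhibition of growth. At the TGI there is no net growth.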 Where only a bound is given, the exact number is not on record here.

Some test systems named below: 786-0 renal; COLO 205 colon; HOP-62 NSCLC; HOP-92 NSCLC; NCI-H226 lung; RPMI-8226 leukemia; SF-268 CNS; SN12C renal; SR leukemia; T-47D breast.
Experiment in all cases: DTP human tumour cell line panel, 48 h

In the case of `Oc1ccc(N=Nc2nccs2)c(O)c1`, the GI50 with 786-0 renal is 3.61 µM; in the assay on COLO 205 colon it was 3.21 µM; in the assay with HOP-62 NSCLC it was 19.9 µM; in the assay on HOP-92 NSCLC it was 3.34 µM; in the assay with NCI-H226 lung it was 12.4 µM; with RPMI-8226 leukemia, 1.62 µM. Also, the GI50 with SF-268 CNS was 4.35 µM; in the assay on SN12C renal, 9.42 µM; with SR leukemia, 2.12 µM; in the assay with T-47D breast, 4.87 µM. Moreover, the TGI in the assay with 786-0 renal came out at 27.7 µM; in the assay on COLO 205 colon, 12 µM; in the assay on HOP-62 NSCLC it was 49.8 µM; in the assay with HOP-92 NSCLC, 24.7 µM; with NCI-H226 lung, 45.1 µM; with RPMI-8226 leukemia it was 4.91 µM. Further, the TGI with SF-268 CNS stood at 38.7 µM; in the assay on SN12C renal, 38.7 µM; with SR leukemia, 9.8 µM; in the assay with T-47D breast, 40.1 µM.
For the compound `Oc1ccc(/C=C/c2cc(O)cc3c2C(c2cc(O)cc(O)c2)C(c2ccc(O)c(O)c2)O3)cc1` (centres undefined), the TGI in the assay on 786-0 renal is over 100 µM; in the assay on COLO 205 colon, 45.1 µM; in the assay with HOP-62 NSCLC, over 100 µM; in the assay with HOP-92 NSCLC it was over 100 µM; in the assay on NCI-H226 lung it was over 100 µM; with RPMI-8226 leukemia, 40.6 µM. Moreover, the TGI with SF-268 CNS was over 100 µM; in the assay with SN12C renal, over 100 µM; with SR leukemia, 55.4 µM; in the assay on T-47D breast, over 100 µM.
With `CC(C)(C)c1cc(C(=O)/C=C/c2ccc(C(=O)O)cc2)cc(C(C)(C)C)c1`, the TGI with 786-0 renal came to 13.9 µM; with COLO 205 colon, 4.73 µM; with HOP-62 NSCLC it was 6.49 µM; with HOP-92 NSCLC, 19.7 µM; in the assay on NCI-H226 lung, 4.22 µM; in the assay with RPMI-8226 leukemia, 6.06 µM. Also, the TGI with SF-268 CNS worked out at 6.82 µM; in the assay on SN12C renal it was 6.6 µM; with SR leukemia, 6.16 µM; in the assay on T-47D breast, 19.8 µM.
In the case of `CNCCn1c(=O)c2cc(OC)c(OC)cc2c2cnc3cc4c(cc3c21)OCO4`, the concentration for 50% growth inhibition (GI50) is under 0.01 µM in the assay with 786-0 renal; 0.0304 µM in the assay with COLO 205 colon; under 0.01 µM in the assay with HOP-62 NSCLC; under 0.0149 µM in the assay with HOP-92 NSCLC; 0.0254 µM in the assay on RPMI-8226 leukemia; under 0.01 µM in the assay on SF-268 CNS. Moreover, the GI50 with SN12C renal, in the assay with SR leukemia and in the assay on T-47D breast was under 0.01 µM in each case. Further, the TGI was 0.0168 µM with 786-0 renal; 2.06 µM with COLO 205 colon; 1.61 µM in the assay with HOP-62 NSCLC; 0.518 µM in the assay on HOP-92 NSCLC; 0.915 µM in the assay on RPMI-8226 leukemia; 1.78 µM in the assay on SF-268 CNS. Moreover, the total growth inhibition concentration (TGI) with SN12C renal was 1.25 µM; with T-47D breast it was 1.48 µM.
Turning to `Nc1c(C(=O)Nc2ccccc2Cl)sc2nc3c(cc12)C(=O)CCC3`, the GI50 with 786-0 renal is 37.7 µM; in the assay with COLO 205 colon it was 0.724 µM; in the assay with HOP-62 NSCLC, 4.33 µM; with HOP-92 NSCLC, 7.29 µM; in the assay on NCI-H226 lung it was 14.6 µM; in the assay with RPMI-8226 leukemia, over 100 µM. Besides, the GI50 in the assay with SF-268 CNS was 39.3 µM; with SN12C renal, over 100 µM; in the assay on T-47D breast, over 40 µM. Further, the TGI is over 100 µM with 786-0 renal; 3.54 µM in the assay on COLO 205 colon; over 67.3 µM in the assay on HOP-62 NSCLC; over 100 µM with HOP-92 NSCLC; over 100 µM with NCI-H226 lung; over 100 µM in the assay with RPMI-8226 leukemia. For the same compound, the TGI in the assay with SF-268 CNS, in the assay on SN12C renal, in the assay with SR leukemia and with T-47D breast was over 100 µM each time.
As to `O=C1c2ccccc2C(=O)c2c(NCCN=Cc3ccccc3O)cccc21`, the GI50 in the assay with 786-0 renal is 6.8 µM; in the assay on COLO 205 colon, 1.41 µM; with HOP-62 NSCLC it was 6.61 µM; with NCI-H226 lung it was 7.97 µM; in the assay with RPMI-8226 leukemia, 0.714 µM; with SF-268 CNS, 2.7 µM. Moreover, the GI50 is 8.28 µM in the assay on SN12C renal, 0.944 µM with SR leukemia and 3.46 µM in the assay on T-47D breast. Moreover, the concentration for total growth inhibition (TGI) is 37.9 µM in the assay on 786-0 renal; 3.82 µM in the assay with COLO 205 colon; 52.3 µM in the assay on HOP-62 NSCLC; 0.0676 µM with HOP-92 NSCLC; over 38.2 µM in the assay on NCI-H226 lung; 2.62 µM in the assay on RPMI-8226 leukemia. Also, the total growth inhibition concentration (TGI) is 14.9 µM with SF-268 CNS, over 54.1 µM in the assay on SN12C renal, over 100 µM in the assay with SR leukemia and over 47.1 µM in the assay with T-47D breast.
Take `NCCCn1c2c(c3ccccc3c1=O)C(=O)c1ccccc1-2`: the GI50 is 0.119 µM in the assay on 786-0 renal; 0.105 µM in the assay with COLO 205 colon; 0.0875 µM with HOP-62 NSCLC; 2.6 µM in the assay on HOP-92 NSCLC; 0.143 µM with NCI-H226 lung; 0.498 µM in the assay with SF-268 CNS. The GI50 in the assay on SN12C renal is 0.0791 µM; in the assay with SR leukemia, 0.0743 µM; in the assay on T-47D breast, 0.162 µM. Besides, the TGI in the assay with 786-0 renal was determined as 1.01 µM; in the assay on COLO 205 colon it was 2.88 µM; with HOP-62 NSCLC it was 0.64 µM; in the assay on HOP-92 NSCLC, 19.1 µM; in the assay with NCI-H226 lung, 1.74 µM; in the assay with RPMI-8226 leukemia, 0.528 µM. The TGI is 8.55 µM in the assay with SF-268 CNS, 0.465 µM in the assay with SN12C renal and 0.951 µM in the assay on T-47D breast.
For `COc1ccc2c(c1)C(C)Cc1c(ncnc1-n1cnc3ccccc31)N2C` (centres undefined), the GI50 with 786-0 renal is 0.591 µM; with COLO 205 colon, 0.33 µM; in the assay with HOP-62 NSCLC, 0.638 µM; in the assay with HOP-92 NSCLC, 0.441 µM; in the assay on NCI-H226 lung it was 12.4 µM; in the assay on RPMI-8226 leukemia, 0.556 µM. Further, the GI50 in the assay with SF-268 CNS was 0.822 µM; in the assay with SN12C renal it was 0.958 µM; with SR leukemia, 0.33 µM; with T-47D breast, 0.432 µM. Also, the TGI in the assay on 786-0 renal stood at 19.6 µM; in the assay with COLO 205 colon, 1.37 µM; in the assay on HOP-62 NSCLC it was 25 µM; in the assay with HOP-92 NSCLC, 8.23 µM; with NCI-H226 lung it was 27.7 µM; in the assay on RPMI-8226 leukemia it was 27.6 µM. Besides, the TGI worked out at 18.1 µM with SF-268 CNS, 34 µM in the assay with SN12C renal, 28 µM in the assay on SR leukemia and 64.6 µM in the assay with T-47D breast.
As to `c1ccc(NCCSc2nc3ccccc3s2)cc1`, the TGI in the assay on 786-0 renal was over 100 µM; in the assay on COLO 205 colon, 41.8 µM; in the assay on HOP-62 NSCLC it was over 100 µM; in the assay on HOP-92 NSCLC it was over 100 µM; in the assay with RPMI-8226 leukemia, over 100 µM; with SF-268 CNS, over 100 µM. Besides, the TGI in the assay on SN12C renal, with SR leukemia and with T-47D breast was over 100 µM in each case.
On to `NCCCOc1cc2ccccc2cc1C(=O)NCCCOc1cc2ccccc2cc1C(=O)Nc1ccc(Cl)cc1O`, for which the 50% growth inhibitory concentration (GI50) in the assay on 786-0 renal is 0.199 µM; with COLO 205 colon, 1.7 µM; in the assay on HOP-62 NSCLC it was 0.34 µM; in the assay with NCI-H226 lung, 0.477 µM; in the assay on RPMI-8226 leukemia it was 0.578 µM; with SF-268 CNS, 0.904 µM. The GI50 in the assay on SN12C renal is 1.73 µM; in the assay with SR leukemia, 0.194 µM; in the assay with T-47D breast it was 1.88 µM. The TGI with 786-0 renal stood at 0.441 µM; with COLO 205 colon, 3.34 µM; with HOP-62 NSCLC it was 1.14 µM; in the assay on NCI-H226 lung, 1.11 µM; in the assay on RPMI-8226 leukemia, 7.09 µM; with SF-268 CNS, 3.17 µM. Also, the figures for the TGI in the assay on SN12C renal, in the assay with SR leukemia and in the assay with T-47D breast were 3.83 µM, 0.871 µM and 4.24 µM, respectively.
As for `Cc1cc(NCCCCNc2ccnc3cc(Cl)ccc23)nc(Nc2ccc(C(=O)N3CCCCC3)cc2)n1`, the GI50 in the assay on 786-0 renal was 1.42 µM; in the assay on COLO 205 colon, 1.76 µM; in the assay on HOP-62 NSCLC, 2.09 µM; in the assay with HOP-92 NSCLC it was 1.21 µM; with NCI-H226 lung it was 2.62 µM; in the assay with RPMI-8226 leukemia, 0.239 µM. Also, the values for the GI50 in the assay on SF-268 CNS, in the assay on SR leukemia and in the assay with T-47D breast were 1.77 µM, 0.24 µM and 2.52 µM, respectively. Moreover, the TGI amounted to 2.97 µM in the assay on 786-0 renal; 3.51 µM with COLO 205 colon; 4.2 µM in the assay with HOP-62 NSCLC; 3.03 µM in the assay on HOP-92 NSCLC; 7.81 µM with NCI-H226 lung; 1.04 µM in the assay on RPMI-8226 leukemia. Also, the TGI in the assay with SF-268 CNS was found to be 3.64 µM; with SR leukemia, 0.855 µM; with T-47D breast, 5.94 µM.
`NC(N)=N/N=C(\N=Nc1ccccc1)c1ccc(Cl)cc1`: the GI50 with 786-0 renal was 2.03 µM; in the assay with COLO 205 colon, 2.46 µM; in the assay on HOP-62 NSCLC, 5.1 µM; in the assay on NCI-H226 lung it was 3.66 µM; with RPMI-8226 leukemia, 3.21 µM; with SF-268 CNS it was 3.53 µM. For the same compound, the figures for the GI50 with SN12C renal, in the assay with SR leukemia and in the assay with T-47D breast were 4.65 µM, 1.93 µM and 2.31 µM, respectively. Also, the total growth inhibition concentration (TGI) in the assay with 786-0 renal came out at 8.36 µM; in the assay with COLO 205 colon, 5.36 µM; with HOP-62 NSCLC, 18.8 µM; in the assay with NCI-H226 lung it was 18.8 µM; with RPMI-8226 leukemia it was 12 µM; in the assay on SF-268 CNS, 15.7 µM. Moreover, the results for the TGI in the assay with SN12C renal, in the assay on SR leukemia and with T-47D breast were 22.1 µM, 4.72 µM and 8.17 µM, respectively.
Take `Oc1ccc(Oc2cnc3ccccc3n2)cc1`: the GI50 is over 100 µM with 786-0 renal; over 100 µM with COLO 205 colon; over 100 µM in the assay with HOP-62 NSCLC; over 100 µM in the assay with NCI-H226 lung; over 100 µM in the assay on RPMI-8226 leukemia; 50.3 µM in the assay on SF-268 CNS. In addition, the GI50 in the assay with SN12C renal was over 100 µM; in the assay on SR leukemia, 78.5 µM; in the assay on T-47D breast, 84.5 µM. Further, the TGI in the assay with 786-0 renal, in the assay on COLO 205 colon, in the assay with HOP-62 NSCLC, in the assay with NCI-H226 lung, in the assay on RPMI-8226 leukemia and with SF-268 CNS was over 100 µM throughout. The TGI in the assay with SN12C renal, in the assay with SR leukemia and in the assay on T-47D breast was over 100 µM each time.
